Measurements as given in US6737383B1, “Herbicidal oxadiazolidines” (priority 1999, dated 2004).

What was measured:
morningglory = test: Test B pre/postemergence morningglory; format: in vivo, Ipomoea hederacea
Outline: (§1)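 Herbicidal effect was estimated by eye on a ten-point control scale after plants spent twelve to sixteen days in a greenhouse following soil or foliar treatment. Foliar sprays targeted plants at one to four leaves; all doses were formulated in a non-phytotoxic solvent with surfactant.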

corn = test: Test B pre/postemergence corn; format: in vivo, Zea mays
Outline: as §1

cocklebur = test: Test B pre/postemergence cocklebur; format: in vivo, Xanthium strumarium
Outline: as §1

sugar beet = test: Test B pre/postemergence sugar beet; format: in vivo, Beta vulgaris
Outline: as §1

rape = test: Test B pre/postemergence rape; format: in vivo, Brassica napus
Outline: as §1

pigweed = test: Test B pre/postemergence pigweed; format: in vivo, Amaranthus retroflexus
Outline: as §1

bedstraw = test: Test B pre/postemergence bedstraw; format: in vivo, Galium aparine
Outline: as §1

wild oat = test: Test B pre/postemergence wild oat; format: in vivo, Avena fatua
Outline: as §1

rice = test: Test B flood test rice; format: in vivo, Oryza sativa; settings: Pre-emergence
Outline: (§2)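 Each value is a visual injury score relative to controls, with 10 meaning complete control and 0 no effect. Evaluation took place twelve to sixteen days after the 2-leaf-stage plants were treated and kept in the greenhouse.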

smallflower flatsedge = test: Test B flood test smallflower flatsedge; format: in vivo, Cyperus difformis; settings: Pre-emergence
Outline: as §2

soybean = test: Test B pre/postemergence soybean; format: in vivo, Glycine max
Outline: as §1

wheat = test: Test B pre/postemergence wheat; format: in vivo, Triticum aestivum
Outline: as §1

velvetleaf = test: Test B pre/postemergence velvetleaf; format: in vivo, Abutilon theophrasti
Outline: as §1

giant foxtail = test: Test B pre/postemergence giant foxtail; format: in vivo, Setaria faberii
Outline: as §1

blackgrass = test: Test B pre/postemergence blackgrass; format: in vivo, Alopecurus myosuroides
Outline: as §1

surinam grass = test: Test B pre/postemergence surinam grass; format: in vivo, Brachiaria decumbens
Outline: as §1

[1] = Postemergence, Rate 125 g/ha, scale 0 to 10, 0 is no effect, 10 is complete control
[2] = Preemergence, Rate 62 g/ha, scale of 0 to 10 where 0 is no effect and 10 is complete control
[3] = Preemergence, Rate 250 g/ha, scale of 0 to 10 where 0 is no effect and 10 is complete control
[4] = Preemergence, Rate 500 g/ha, scale of 0 to 10 where 0 is no effect and 10 is complete control
[5] = Rate 62 g/ha, Postemergence, scale 0 to 10, 0 no effect, 10 complete control
[6] = Rate 500 g/ha, Postemergence, scale 0 to 10, 0 no effect, 10 complete control
[7] = Rate 250 g/ha, Postemergence, scale of 0 to 10 where 0 is no effect and 10 is complete control
[8] = Rate 1000 g/ha, scale 0 to 10 (0 no effect, 10 complete control)
[9] = Rate 125 g/ha, flood test species, scale 0 to 10 where 0 is no effect and 10 is complete control
[10] = Rate 250 g/ha, flood-test species, scale 0 to 10, 0 is no effect, 10 is complete control
[11] = Rate 500 g/ha, flood test species, scale 0 to 10 (0 no effect, 10 complete control)

CC(C)N(C(=O)n1oc(=O)n(-c2ccc3ccccc3c2)c1=O)c1ccccc1 [Compound 332]
Plant response rating, Morningglory (morningglory; [1]): 0 | Morningglory plant response rating (morningglory; [2]): 0 | Morningglory plant response rating (0 to 10 scale) (morningglory; Preemergence, Rate 125 g/ha): 0 | Morningglory plant response rating (morningglory; [3]): 0 | Morningglory plant response rating (morningglory; [4]): 0 | Morningglory plant response rating (morningglory; [5]): 0 | Plant response rating, Morningglory (morningglory; [6]): 0 | Plant response rating, Corn (corn; [1]): 0 | Corn plant response rating (corn; [2]): 0 | Corn plant response rating (0 to 10 scale) (corn; Preemergence, Rate 125 g/ha): 0 | Corn plant response rating (corn; [3]): 0 | Corn plant response rating (corn; [4]): 0 | Corn plant response rating (corn; [5]): 0 | Plant response rating, Corn (corn; [6]): 0 | Plant response rating, Cocklebur (cocklebur; [1]): 0 | Cocklebur plant response rating (cocklebur; [2]): 0 | Cocklebur plant response rating (0 to 10 scale) (cocklebur; Preemergence, Rate 125 g/ha): 0 | Cocklebur plant response rating (cocklebur; [3]): 0 | Cocklebur plant response rating (cocklebur; [4]): 0 | Cocklebur plant response rating (cocklebur; [5]): 0 | Plant response rating, Cocklebur (cocklebur; [6]): 0 | Plant response rating, Sugarbeets (sugar beet; [1]): 0 | Sugarbeets plant response rating (sugar beet; [2]): 0 | Sugarbeets plant response rating (0 to 10 scale) (sugar beet; Preemergence, Rate 125 g/ha): 0 | Sugarbeets plant response rating (sugar beet; [3]): 0 | Sugarbeets plant response rating (sugar beet; [4]): 0 | Sugarbeets plant response rating (sugar beet; [5]): 0 | Plant response rating, Sugarbeets (sugar beet; [6]): 0 | Plant response rating, Rape (rape; [1]): 0 | Rape plant response rating (rape; [2]): 0 | Rape plant response rating (0 to 10 scale) (rape; Preemergence, Rate 125 g/ha): 0 | Rape plant response rating (rape; [3]): 0 | Rape plant response rating (rape; [4]): 0 | Rape plant response rating (rape; [5]): 0 | Plant response rating, Rape (rape; [6]): 0 | Plant response rating, Redroot pigweed (pigweed; [1]): 1 | Redroot pigweed plant response rating (pigweed; [2]): 0 | Redroot pigweed plant response rating (0 to 10 scale) (pigweed; Preemergence, Rate 125 g/ha): 0 | Redroot pigweed plant response rating (pigweed; [3]): 0 | Redroot pigweed plant response rating (pigweed; [4]): 3 | Redroot pigweed plant response rating (pigweed; [5]): 0 | Plant response rating, Redroot pigweed (pigweed; [6]): 4 | Plant response rating, Bedstraw (bedstraw; [1]): 0 | Bedstraw plant response rating (bedstraw; [2]): 0 | Bedstraw plant response rating (0 to 10 scale) (bedstraw; Preemergence, Rate 125 g/ha): 0 | Bedstraw plant response rating (bedstraw; [3]): 0 | Bedstraw plant response rating (bedstraw; [5]): 0 | Plant response rating, Bedstraw (bedstraw; [7]): 0 | Plant response rating, Wild oats (wild oat; [1]): 0 | Wild oats plant response rating (wild oat; [2]): 0 | Wild oats plant response rating (0 to 10 scale) (wild oat; Preemergence, Rate 125 g/ha): 0 | Wild oats plant response rating (wild oat; [3]): 0 | Wild oats plant response rating (wild oat; [4]): 0 | Wild oats plant response rating (wild oat; [5]): 0 | Plant response rating, Wild oats (wild oat; [6]): 0 | Rice plant response rating (rice; [8]): 0 | Rice plant response rating (rice; [9]): 0 | Rice plant response rating (rice; [10]): 0 | Rice plant response rating (rice; [11]): 0 | S. Flatsedge plant response rating (smallflower flatsedge; [8]): 0 | S. Flatsedge plant response rating (smallflower flatsedge; [9]): 0 | S. Flatsedge plant response rating (smallflower flatsedge; [10]): 0 | S. Flatsedge plant response rating (smallflower flatsedge; [11]): 0 | Plant response rating, Soybean (soybean; [1]): 2 | Soybean plant response rating (soybean; [2]): 0 | Soybean plant response rating (0 to 10 scale) (soybean; Preemergence, Rate 125 g/ha): 0 | Soybean plant response rating (soybean; [3]): 0 | Soybean plant response rating (soybean; [4]): 0 | Soybean plant response rating (soybean; [5]): 2 | Plant response rating, Soybean (soybean; [6]): 3 | Plant response rating, Wheat (wheat; [1]): 0 | Wheat plant response rating (wheat; [2]): 0 | Wheat plant response rating (0 to 10 scale) (wheat; Preemergence, Rate 125 g/ha): 0 | Wheat plant response rating (wheat; [3]): 0 | Wheat plant response rating (wheat; [4]): 0 | Wheat plant response rating (wheat; [5]): 0 | Plant response rating, Wheat (wheat; [6]): 0 | Plant response rating, Velvetleaf (velvetleaf; [1]): 0 | Velvetleaf plant response rating (velvetleaf; [2]): 0 | Velvetleaf plant response rating (0 to 10 scale) (velvetleaf; Preemergence, Rate 125 g/ha): 0 | Velvetleaf plant response rating (velvetleaf; [3]): 0 | Velvetleaf plant response rating (velvetleaf; [4]): 0 | Velvetleaf plant response rating (velvetleaf; [5]): 0 | Plant response rating, Velvetleaf (velvetleaf; [6]): 0 | Plant response rating, Giant foxtail (giant foxtail; [1]): 0 | Giant foxtail plant response rating (giant foxtail; [2]): 0 | Giant foxtail plant response rating (0 to 10 scale) (giant foxtail; Preemergence, Rate 125 g/ha): 1 | Giant foxtail plant response rating (giant foxtail; [3]): 4 | Giant foxtail plant response rating (giant foxtail; [4]): 7 | Giant foxtail plant response rating (giant foxtail; [5]): 0 | Plant response rating, Giant foxtail (giant foxtail; [6]): 0 | Plant response rating, Blackgrass (blackgrass; [1]): 0 | Blackgrass plant response rating (blackgrass; [2]): 0 | Blackgrass plant response rating (0 to 10 scale) (blackgrass; Preemergence, Rate 125 g/ha): 0 | Blackgrass plant response rating (blackgrass; [3]): 0 | Blackgrass plant response rating (blackgrass; [4]): 0 | Blackgrass plant response rating (blackgrass; [5]): 0 | Plant response rating, Blackgrass (blackgrass; [7]): 0 | Plant response rating, Blackgrass (blackgrass; [6]): 0 | Plant response rating, B. signalgrass (surinam grass; [1]): 0 | B. signalgrass plant response rating (surinam grass; [2]): 0 | B. signalgrass plant response rating (0 to 10 scale, 0 is no effect, 10 is complete control) (surinam grass; Preemergence, Rate 125 g/ha): 0 | B. signalgrass plant response rating (surinam grass; [3]): 0 | B. signalgrass plant response rating (surinam grass; [4]): 0 | B. signalgrass plant response rating (surinam grass; [5]): 0 | Plant response rating, B. signalgrass (surinam grass; [7]): 0 | Plant response rating, B. signalgrass (surinam grass; [6]): 0
